Reference: patent US9593144B2, “FPR1 antagonist derivatives and use thereof” (CHANG GUNG UNIVERSITY, priority 2014, dated 2017)
Square brackets hold non-standard residues; d marks the D form. Peptide text beside a SMILES is read from it. * marks the point of attachment. Bz = O=C(c1ccccc1)*

How the values were obtained:
human neutrophils [1] = assay: cells; type: cell-based; conditions: Neutrophil, mean ± SEM
Description: Degranulation of azurophilic granules was determined by elastase release as described above. Experiments were performed using MeO-Suc-[…]-nitroanilide as the elastase substrate. […] Results are expressed as the percentage of elastase release in the drug-free control group, DMSO. Tables 5 and 6 explore whether there is an anti-inflamatory effect in the dipeptide derivatives. Because ferricytochrome c cannot penetrate cell membranes, it reacts with superoxide anion extracellularly. Also, there are absorptive reactions at 550 nm, and differences among the absorptive reactions can be used to evaluate the influence on the release of superoxide anion. The elastase is released by degranulation as the neutrophil is activated. Tables 5 and 6 use the substrate, MeO-Suc-[…]-nitroanilide, with the specificity for reacting with the elastase so as to evaluate the influence of the candidate compound on the elastase release. Blood was taken from healthy human donors (20-32 years old) by venipuncture, following a protocol approved by the Institutional Review Board at Chang Gung Memorial Hospital. Neutrophils were isolated by a standard method of dextran sedimentation prior to centrifugation in a Ficoll Hypaque gradient and the hypotonic lysis of erythrocytes. […] The degranulation of azurophilic granules was determined by elastase release as described above. Experiments were performed using MeO-Suc-[…]-nitroanilide as the elastase substrate. Briefly, after supplementation with MeO-Suc-[…]-nitroanilide ([…] neutrophils (6×10^5 ml^-1) were equilibrated at 37° C. for 2 min and incubated with drugs for 5 min. […] The results are expressed as the percentage of elastase release in the drug-free control group.

human neutrophils [2] = assay: Expression of CD11b on the cell surface of activated neutrophils (flow cytometry); type: cell-based
Description: The suspension of neutrophils was mixed at 37° C. and pre-heated for 5 min, and then compounds with different concentrations for measurements were added. […] And the reaction termination is done by on-ice setting. The supernatant was removed after centrifugation, and make the cells suspension again in the balanced salt solution containing bovine serum albumin (BSA). Anti-CD11b with fluorescein isothiocyanate (FITC) labeling was added, and kept on ice and in the dark. Finally, a balanced salt solution was added to terminate the reaction. By means of the flow cytometer for detecting the anti-CD11b with fluorescein isothiocyanate (FITC) labeling, it is possible to further evaluate whether the candidate compounds had influence on CD11b expression on the cell membranes of activated neutrophils according to changes in fluorescence. […].

human neutrophils [3] = assay: cells; type: cell-based; conditions: for IC50: Neutrophil
Source text: Tables 5 and 6 explore whether there is an anti-inflamatory effect in the dipeptide derivatives. Because ferricytochrome c cannot penetrate cell membranes, it reacts with superoxide anion extracellularly. Also, there are absorptive reactions at 550 nm, and differences among the absorptive reactions can be used to evaluate the influence on the release of superoxide anion. The elastase is released by degranulation as the neutrophil is activated. Tables 5 and 6 use the substrate, MeO-Suc-Ala-Ala-Pro-Val-p-nitroanilide, with the specificity for reacting with the elastase so as to evaluate the influence of the candidate compound on the elastase release.
Blood was taken from healthy human donors (20-32 years old) by venipuncture, following a protocol approved by the Institutional Review Board at Chang Gung Memorial Hospital. Neutrophils were isolated by a standard method of dextran sedimentation prior to centrifugation in a Ficoll Hypaque gradient and the hypotonic lysis of erythrocytes.
The evaluation of O2.^− generation was based on the SOD-inhibitable reduction of ferricytochrome c. In brief, after supplementation with 0.5 mg ml^−1 ferricytochrome c and 1 mM Ca^2+, neutrophils were equilibrated at 37° C. for 2 min and incubated with drugs […].

[4] = tested on: MAPKs (ERK, p38 and JNK) and Akt; assay: Western blot: phosphorylation of MAPKs (ERK, p38, JNK) and Akt in fMLF-stimulated neutrophils; type: cell-based, human; conditions: HCH6-1 10 μM pre-processed 5 min; fMLF 3 nM, 30 sec
Source text: Mitogen-activated protein kinases (MAPKs) and the expression of Akt phosphorylation are closely related to the regulation of cell inflammatory response. By specific binding of antibodies, each compound's influence on protein expression activated by different signals was observed. As to neutrophils, MAPKs (ERIK, p38, and JNK) and Akt signal transduction pathways are involved in the regulation of superoxide anion generation and elastase release. It is can be seen from the above-mentioned experiments that HCH6-1 is capable of competitively inhibiting superoxide anion generation and elastase release. Whether downstream MAPKs and Akt signal transduction pathways of FPR1 were involved in the regulation of superoxide anion generation and elastase release is explored below.
The experimental conditions were as follows. HCH6-1 (10 μM) was pre-processed for 5 min, followed by stimulus of fMLF (3-30 nM) for 30 sec.

human neutrophils [5] = assay: Cytotoxic test: lactate dehydrogenase (LDH) release from human neutrophils; type: cell-based
Description: FIGS. 1(a)-1(b) show the influences of HCH6-1 on releasing lactate dehydrogenase (LDH) from human neutrophils under the following experimental conditions. The suspension of neutrophils was reacted with different concentrations of candidate compounds for 15 min, or fixed concentrations of candidate compounds for various times. Also, 0.1% Triton X-100 was added to react for 30 min as a release amount of total lactate dehydrogenase (Total LDH), wherein the supernatant was subjected to centrifugation for 8 min, at 200 g and at 4° C., and then a lactate dehydrogenase reagent was added and kept in the dark and at room temperature for 30 min, and an absorbance at 492 nm was monitored. Results are measured based on Total LDH as 100%.

- IC50 (human neutrophils [1]; WKYMVm, n = 4 or 8, Table 6, read-out: Elastase release WKYMVm IC50): 5.22 ± 0.7 µM
- IC50 (human neutrophils [1]; WKYMVm/CB, n = 3, Table 4, read-out: WKYMVm/CB NE release (IC50)): 4.61 ± 0.72 µM
- IC50 (human neutrophils [1]; fMLF, n = 4 or 8, Table 6, read-out: Elastase release fMLF IC50): 0.57 ± 0.07 µM
- IC50 (human neutrophils [1]; fMLF/CB, n = 3, Table 4, read-out: fMLF/CB NE release (IC50)): 0.6 ± 0.07 µM
- IC50 (human neutrophils [1]; fMLP/CB, n = 3, Table 1, read-out: Anti-inflammation NE release (IC50)): 0.6 ± 0.07 µM
- IC50 (human neutrophils [2]; Homo sapiens, Neutrophil, stimulus of fMLF (30 nM)/CB, read-out: inhibition of CD11b expression on cell membranes, IC50): 0.26 ± 0.05 µM
- IC50 (human neutrophils [3]; WKYMVm, mean ± SEM, n = 4 or 8, Table 5, read-out: Superoxide anion WKYMVm IC50): 4.98 ± 0.27 µM
- IC50 (human neutrophils [3]; WKYMVm/CB, mean ± SEM, n = 3, Table 4, read-out: WKYMVm/CB O2•− generation (IC50)): 4.83 ± 0.66 µM
- IC50 (human neutrophils [3]; human neutrophils triggered by fMLF, read-out: IC50 of inhibitory effect (superoxide anion, fMLF) restated in text): 0.32 ± 0.03 µM
- IC50 (human neutrophils [3]; human neutrophils, fMLF/CB, mean ± SEM, n = 3, Table 4, read-out: fMLF/CB O2•− generation (IC50)): 0.23 ± 0.02 µM
- IC50 (human neutrophils [3]; human neutrophils, fMLF, mean ± SEM, n = 4 or 8, Table 5, read-out: Superoxide anion fMLF IC50): 0.32 ± 0.03 µM
- IC50 (human neutrophils [3]; human neutrophils, fMLP/CB, mean ± SEM, n = 3, Table 1, read-out: Anti-inflammation O2•− generation (IC50)): 0.23 ± 0.02 µM
SMILES: COC(=O)[C@@H](Cc1ccccc1)NC(=O)[C@H](Cc1c[nH]c2ccccc12)NC(=O)c1ccccc1 [Compound 3, N—(N-Benzoyl-L-tryptophanyl)-D-phenylalanine methyl ester] (Bz-Trp-[dF]-OMe)
- inhibition of CD11b expression on cell membranes (human neutrophils [2]; stimulus of IL-8 (100 nM), FIG. 2(n)): no inhibitory effects
- inhibition of CD11b expression on cell membranes (human neutrophils [2]; stimulus of MMK1, FIG. 2(h)): no inhibitory effects
- selectivity for FPR1/2 and FPR1 (difference WKYMVm vs fMLF) (human neutrophils [3]; superoxide anion, WKYMVm vs fMLF): 15 fold
- phosphorylation for MAPKs (ERK, p38 and JNK) and Akt [4]: significantly suppressed phosphorylation
- toxicity to cells (LDH release) during a long period (human neutrophils [5]; HCH6-1 30 μM, 120 min, FIG. 1(b)): no significant toxicity
- toxicity to neutrophils (LDH release) (human neutrophils [5]; different concentrations, 15 min, FIG. 1(a)): not the results of toxicity to the neutrophils
